Data from patent publication US20230285481A1, “TREATMENT OF CANCER HARBORING MUTATIONS IN THE TP53 GENE AND/OR POST-TRANSLATIONAL MODIFICATIONS IN THE P53 PROTEIN WITH PARVOVIRUSES” (UNIVERSIDAD AUTÓNOMA DE MADRID, priority 2018, published 2023).

How the values were obtained:
Assay type in all cases: cell-based, human
[1] = system: U87-MG glioblastoma cells; experiment: MVM infection markers (NS1, Pp53-S15, vDNA) by IF-confocal, Southern and western blot in U87-MG
Method: Immunofluorescence analyses were performed on neurospheres of hGSCs (human glioblastoma stem cells) and established adherent cell lines as follows: • Neurosphere staining. The cell spheres were fixed for 30 minutes with paraformaldehyde (PFA) 4%, then permeabilized for 10 minutes at room temperature with 0.1% Triton X-100 (Merck) in PBS, and blocked by incubating 20 minutes with 0.1% Triton X-100 and 10% fetal bovine serum (Sigma) in PBS. Neurospheres were incubated in the same buffer with the primary antibodies indicated in the figures for 1 h at 37° C., and finished by four five-minute PBS washes. Then neurospheres were incubated with the secondary antibodies at appropriate concentrations in the same buffer and conditions, and finally stained with DAPI for half an hour and mounted embedding at 37° C. in 0.8% agarose-LGT prepared in PBS. Embedded neurospheres were applied as 200 microliters drops on pre-cooled large (2×3 cm) coverslips and stored at 4° C. in the dark until confocal analysis. • Adherent cells. The cell lines were seeded on coverslips, treated as indicated in the figures and fixed for 10 minutes with 4% paraformaldehyde. Staining with antibodies was carried out essentially as described above for the neurospheres. Cells were mounted with Fluoromount G (Southern Biotech). Preparations were kept at least 16 h at room temperature in the dark before observation under a microscope. • Analysis of virus replication by FISH. This method was used to determine the degree of replication of the parvovirus MVM genome. The probe used was a mixture of three DNA oligonucleotides labeled at the 3′ terminal end with the Cy5 fluorophore, and complementary to different sequences of the MVM genome. […] The images were processed with Adobe Photoshop CS5 programs (Adobe Systems Incorporated) and ImageJ/FIJI (http://rsb.info.nih.gov/ij/) taking the same samples as a zero-signal reference without antibodies (auto-fluorescence control), or only with secondary antibodies. […]

[2] = system: U373-MG glioblastoma cells; experiment: Clonogenic analysis of cell viability (colony formation) in U373-MG; conditions: single agent: CisPt 1-hour treatment, or MVMp singly inoculated at two MOI
Method: Consequently, the CisPt dose effect on different MVMp life cycle parameters, and on p53 phosphorylation and functional signaling in U373-MG cells, was analyzed. For this, the U373-MG cells treated with Cis-Platinum doses (10-120 microM) for 1 hour at 37° C. were inoculated with MVMp to allow adsorption, and then of the infection was allowed to progress for 24 hours. Cells were sampled and processed for virus macromolecular markers and Pp53-S15 determinations.
We finally analyzed whether these MVM/CisPt cooperative effects impact cancer cells viability, and therefore whether they imply a therapeutic significance.

[3] = system: U373-MG glioblastoma cells; experiment: MVM infection markers (NS1, Pp53-S15, vDNA) by cytometry, IF-confocal and western blot in U373-MG
Excerpt: In all the experiments, a minimum of 30,000 events per sample were acquired in a FACSCantoII cytometer (BD Biosciences), which were pre-selected by a region based on their size and complexity (FSC and SSC parameters, respectively) in order to exclude cellular debris and other contaminating particles. The CellQuest software (BD Biosciences) was used to acquire the events and the FlowJo software (Tree Star) was used to analyze the data. The cell cycle analysis was in accordance to [Gil-Ranedo, J., Hernando, E., Riolobos, L., Dominguez, C., Kann, M, and José M Almendral. 2015. The mammalian cell cycle regulates nuclear parvovirus capsid assembly. PlosPathogens, 11; 11 (6): e1004920]. For staining, cells were permeabilized with PBS+0.1% triton X-100 for 10 minutes at room temperature, then blocked with the same buffer supplemented with 1% FCS for 20 minutes. Cells were re-suspended in PBS (pH 7.2)+0.5% BSA and the primary antibodies indicated in the figures were added followed by 1 h stirring at 37° C. Cells were washed in PBS and the secondary antibodies were added and incubated similarly. Two further washes in PBS were made before analyzing the samples in the flow cytometer.
Immunofluorescence analyses were performed on neurospheres of hGSCs (human glioblastoma stem cells) and established adherent cell lines as follows: • Neurosphere staining. The cell spheres were fixed for 30 minutes with paraformaldehyde (PFA) 4%, then permeabilized for 10 minutes at room temperature with 0.1% Triton X-100 (Merck) in PBS, and blocked by incubating 20 minutes with 0.1% Triton X-100 and 10% fetal bovine serum (Sigma) in PBS. Neurospheres were incubated in the same buffer with the primary antibodies indicated in the figures for 1 h at 37° C., and finished by four five-minute PBS washes. Then neurospheres were incubated with the secondary antibodies at appropriate concentrations in the same buffer and conditions, and finally stained with DAPI for half an hour and mounted embedding at 37° C. in 0.8% agarose-LGT prepared in PBS. Embedded neurospheres were applied as 200 microliters drops on pre-cooled large (2×3 cm) coverslips and stored at 4° C. in the dark until confocal analysis. • Adherent cells. The cell lines were seeded on coverslips, treated as indicated in the figures and fixed for 10 minutes with 4% paraformaldehyde. Staining with antibodies was carried out essentially as described above for the neurospheres. Cells were mounted with Fluoromount G (Southern Biotech). Preparations were kept at least 16 h at room temperature in the dark before observation under a microscope. • Analysis of virus replication by FISH. This method was used to determine the degree of replication of the parvovirus MVM genome. The probe used was a mixture of three DNA oligonucleotides labeled at the 3′ terminal end with the Cy5 fluorophore, and complementary to different sequences of the MVM genome. Cells adhered and fixed in 4% paraformaldehyde were permeabilized for 10 minutes with 0.2% Triton X-100 (Merck) in PBS and equilibrated for 5 minutes at room temperature in 2×SSC (0.3 M NaCl; 30 mM Na2C6H5O7, pH 7) supplemented with 15% formamide. Hybridization was with 500 ng/ml of each oligonucleotide in FISH buffer (5×SSC, 0.5% SDS, 10% dextran sulfate, 50% formamide) for 2.5 hours at 37° C. The preparations were washed twice with 2×SSC, 15% formamide for 30 minutes. […]

| Compound | p53 phosphorylation at the Ser15 residue ([1]; uninfected U87-MG cells, IF-confocal) | percentage of NS1+ cells after drug pre-treatment ([1]; U87-MG treated with different Cis-Pt doses prior to MVMp infection) | MVMp genome replication (vDNA) after drug pre-treatment ([1]; U87-MG, Cis-Pt dose effect, MVMp infection) | cell viability (clonogenic assay) [2] | NS1 levels by western blot ([3]; MVMp infected U373-MG, 5 to 20 microM CisPt) | virus genome (vDNA) replication levels ([3]; MVMp infected U373-MG, IF-confocal, CisPt dose effect) | percentage of cells expressing NS1 and level of NS1 expression ([3]; MVMp infected U373MG, flow cytometry, combined treatment with single dose of CD versus simple infection) | Pp53-S15 levels ([3]; U373-MG, IF-confocal, 5-20 microM Cis-Pt, 1 hour, then MVMp 24 hours) | Pp53-S15 induction ([3]; U373MG, flow cytometry, single dose, also in treated non-infected cells) |
| --- | --- | --- | --- | --- | --- | --- | --- | --- | --- |
| O=c1[nH]cc(F)c(=O)[nH]1 [5FU, 5-fluorouracil] | substantially increased | – | – | – | – | – | – | – | – |
| N.N.[Cl][Pt][Cl] [CisPt, Cisplatin] | – | very significant increase | benefitted from the 10 or 20 microM Cis-Pt treatment, but not from higher doses | progressively decreased the viability | increasing NS1 levels | benefitted from 10 microM CisPt but not from higher doses | highest increase | significant increase | generalized Pp53-S15 induction in all cells |
